# Reference: patent US20080293936A1, “Novel inhibitors of lysyl oxidase” (priority 2007, published 2008)
# Assays:
# Lysyl oxidase [1] = target: T1, Lysyl oxidase (Bos taurus, UniProt P33072); assay: Kinetic investigation: dialysis of lysyl oxidase-inhibitor complexes against inhibitor-free buffer, recovery of activity; assay type: biochemical, bovine; settings: for vt/vmax: preincubation at 10-fold IC50; for k−1: calculated from slopes; for kon: pH 8.2, from k−1 and IC50, read-out: k1 (association velocity constant) (converted)
# T1 construct: The enzyme preparation was carried out at 4° C. with fresh material from bovine aorta; from tissue; host or cells: bovine aorta
# T1 sequence (P33072 170-418): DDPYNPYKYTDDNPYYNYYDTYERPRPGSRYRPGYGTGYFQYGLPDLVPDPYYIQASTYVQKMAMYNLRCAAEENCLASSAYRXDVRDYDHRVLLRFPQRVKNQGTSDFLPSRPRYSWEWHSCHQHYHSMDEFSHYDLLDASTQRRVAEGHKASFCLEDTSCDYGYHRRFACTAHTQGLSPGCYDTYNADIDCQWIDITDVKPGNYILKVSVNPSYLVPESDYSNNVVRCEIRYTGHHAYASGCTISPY
# Procedure: Lysyl oxidasee and lysyl oxidase inhibitors of the structural formulas (XX)-(XXIII) (Table 1) were coincubated at concentrations that were 10-fold over the respective IC50 of the inhibitor and were subsequently dialyzed against 0.5 M borax buffer at pH 8.2 without added inhibitor. The dialysis buffer was exchanged twice during the first hour and subsequently three times in hourly intervals. The volume against which was dialyzed was at least 100-fold greater than the volume of the lysyl oxidase preparation in the dialysis tube. After 2, 4, 5 und 19 h lysyl oxidase activity was measured as described in Example 2. In a parallel assay a dialysis with a non-inhibited lysyl oxidase preparation was carried out to determine the effect of spontaneous activity loss during dialysis and to obtain a reference value (100% activity, positive control). From the obtained change in time-dependent activity it was possible to calculate the dissociation velocity constants of the inhibitor compounds, the half life times of the enzyme-inhibitor complexes and the association velocity constants. In the following section it is derived how these kinetic parameters can be determined form the measurement of the reaction velocity with the inhibited fraction at the timepoint t (vt) and the reaction velocity with the positive control (vmax).
# Derivations: During dialysis against buffer without inhibitor the complex (EI) consisting of enzyme (E) and inhibitor (I) decays with a dissociation constant of first k−1
# The velocity of decay is proportional to the concentration of the enzyme-inhibitor complex:
# Rearranging this equation and definite Integration from the initial enzyme-inhibitor-complex concentration ([EI]0) to the concentration of the complex at the measurement time point t ([EI]t) on the left side and from t=0 to t on the right side yields:
# The ratio of the reaction velocity when the inhibited enzyme preparation is used at a measurement time point t (vt) to the reaction velocity when the positive control is used (vmax) is dependent on the proportion of the total enzyme concentration in the assay ([E]0) that is present as enzyme-inhibitor-complex concentration at a time point t ([EI]t). The following equation describes this relationship: […]
# For reasons of simplification a variable Rt can be defined
# Solving the above differential equation and substituting Rt into the equation one obtains: […]
# By linear regression with ln Rt and t, k−1 can be determined as the coefficient of slope.
# Using k−1 one can calculate the half-life time of the enzyme-inhibitor-complexes (t1/2) as:
# To determine the kinetic association constant the equilibrium is considered:
# At the particular inhibitor concentration (IC50) at which the reaction velocity is 50% of the reaction velocity of the positive control, the free enzyme concentration ([E]) is approximately equal to the concentration of the enzyme inhibitor complex ([EI])
# By substitution into the equilibrium equation and by simple rearrangement one obtains a term for the association constant which is dependent on the dissociation constant determined above and on the IC50:
# Results Tables 2a to 2d show the results from reaction velocity measurements at the time points after 0, 120, 270 and 1140 min of dialysis against an inhibitor-free buffer. The relative reaction velocities and the derived constants are provided. In addition, the results of a regression analysis according to Example 3 are provided, from which the kinetic constants from table 3 can be calculated. Results are shown for compounds (XX)-[…].
# Lysyl oxidase [2] = target: T1, Lysyl oxidase; assay: Lysyl oxidase inhibition, peroxidase-coupled fluorometric activity test; assay type: biochemical, bovine
# Procedure: Lysyl oxidase was isolated form bovine aorta, modified according to Williams und Kagan (1985) Assessment of lysyl oxidase variants by urea gel electrophoresis: evidence against disulfide isomers as bases of the enzyme heterogeneity. Anal. Biochem. 149: 430-7, and Kagan und Sullivan (1982) Lysyl oxidase: preparation and role in elastin biosynthesis. Methods Enzymol. 82(Pt A): 637-50. The enzyme preparation was carried out at 4° C. with fresh material from bovine aorta. The aorta was homogenized for 90 seconds in 2.5. ml buffer per gram of tissue. The buffer consisted of 16 mM potassium phosphate, 150 mM sodium chloride and 1 mM phenylmethylsulfonylfluoride. The homogenized mixture was centrifuged for 20 minutes at 11,000 g. The homogenization was followed by a centrifugation step and was repeated with 150 mM sodium chloride buffer and 1 M urea buffer. The pellet that was obtained after centrifugation was homogenized in buffer plus 4 M urea, was stirred over night and centrifuged twice. The supernatants with the lysyl oxidase activity were stored each time.
# To determine the specific enzyme activity of lysyl oxidase a coupled activity test with fluorescence was applied (modified according to nach Trackman P C, Zoski C G, Kagan, H M (1981) Development of a peroxidase-coupled fluorometric assay for lysyl oxidase. Anal. Biochem. 113: 336-342).
# Into a 2 ml plastic cuvette the following reaction solution was pipetted:
# The fluorescence of the reaction solution was determined at an excitation wavelength of 350 nm and measurement of emission was carried out at 425 nm at 37° C. Before the addition of the sample solution fluorescence was determined by calibration with 1 nmol hydrogen peroxide. This increase in fluorescence was equivalent to a turnover of 1 nmol 1,5-diaminopentane. As a positive control the time course of the increase in fluorescence when an equivalent volume of lysyl oxidase without inhibitor was added, was used. The development of fluorescence of the assay without the addition of lysyl oxidase used as a negative control. […]
# [3] = regression analysis below Tables 2a-2d
Rt (Lysyl oxidase [1]; 0 min of dialysis),ln Rt (Lysyl oxidase [1]; 0 min of dialysis),vt/vmax (Lysyl oxidase [1]; 0 min of dialysis),Rt (Lysyl oxidase [1]; 120 min of dialysis),ln Rt (Lysyl oxidase [1]; 120 min of dialysis),vt/vmax (Lysyl oxidase [1]; 120 min of dialysis),Rt (Lysyl oxidase [1]; 270 min of dialysis),ln Rt (Lysyl oxidase [1]; 270 min of dialysis),vt/vmax (Lysyl oxidase [1]; 270 min of dialysis),"Rt (Lysyl oxidase [1]; 1,140 min of dialysis)","vt/vmax (Lysyl oxidase [1]; 1,140 min of dialysis)",k−1 (Lysyl oxidase [1]; Table 3),kon (Lysyl oxidase [1]; Table 3),"ln Rt (Lysyl oxidase [1]; 1,140 min of dialysis)",k−1 (dissociation velocity constant) (Lysyl oxidase [1]; [3]),"IC50 (Lysyl oxidase [2]; Table 1, lysyl oxidase from bovine aorta, 37° C., pH 8.2)",IC50 (Lysyl oxidase [2]; Table 3),IC50 (Lysyl oxidase [2]; as quoted in titles of Tables 2a-2d),"residence time (Lysyl oxidase [1]; Table 3, from k−1, read-out: t1/2 (half-life time of the enzyme-inhibitor complex) (converted))",slope (linear regression of ln Rt against t) (Lysyl oxidase [1]; [3]),SMILES
1,0,0,0.91,−9.431 × 10^−2,9 × 10^−2,0.72,−0.3285,0.28,0,1,0.053 h⁻¹,13.6 M⁻¹ s⁻¹,–,–,–,–,–,–,–,"COCCc1ccc(Oc2c(-n3ccnc3)cnn(-c3ccc(Cl)cc3)c2=O)cc1 [(XX), 2-(4-chlorophenyl)-5-(1H-imidazole-1-yl)-4-[4-(2-methoxyethyl)phenoxy]pyridazine-3(2H)-one]"
1,0,0,0.75,−0.2877,0.25,0.64,−0.4463,0.36,0.33,0.67,0.074 h⁻¹,75 M⁻¹ s⁻¹,−1.109,0.05344 h⁻¹,–,–,–,–,–,"O=c1c(Oc2ccc(-c3ccccc3)cc2)c(-n2ccnc2)cnn1-c1ccc(Cl)cc1Cl [(XXII), 4-(1,1′-biphenyl-4-yloxy)-2-(2,4-dichlorophenyl)-5-(1H-imidazole-1-yl)pyridazine-3(2H)-one]"
0.84,−0.1744,0.16,0.47,−0.7550,0.53,0.37,−0.9943,0.63,0.11,0.89,0.097 h⁻¹,18.3 M⁻¹ s⁻¹,−2.207,0.09694 h⁻¹,1470 nM,1470 nM,~1470 nM,438 min,−1.616×10^−3 1/min,"CCCc1ccc(Oc2c(-n3ccnc3)cnn(-c3ccc(Cl)cc3)c2=O)cc1 [(XXIII), 2-(4-chlorophenyl)-5-(1H-imidazole-1-yl)-4-(4-propylphenoxy)pyridazine-3(2H)-one]"
